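A five-concentration, 48-hour dose response in 96-well plates underlies each endpoint, interpolated linearly between surrounding concentrations. Abbreviation: GI50, concentration required for 50% inhibition of growth.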 Activity calls are given as the source filed them. Cut-off read from the data, not from the text of the source: active = GI50 up to about 1.1 µM and inactive = higher.
Assays:
Assay in all cases: growth of human tumour cells (NCI), 48 h
[1] = system: NCI/ADR-RES
[2] = system: HCC 2998
[3] = system: NCI-H226
[4] = system: K562
[5] = system: A498
[6] = system: DU-145
[7] = system: HT-29
[8] = system: EKVX
[9] = system: NCI-H23
[10] = system: ACHN
[11] = system: SW-620
[12] = system: SN12C
[13] = system: NCI-H522
[14] = system: SK-MEL-5
[15] = system: BT-549
[16] = system: 786-0
[17] = system: NCI-H460
[18] = system: LOX IMVI
[19] = system: HL-60

Measured: GI50

CC(CO)(CO)Nc1ncnc2ccccc12
inactive: [1] > 100 µM | [2] > 100 µM | [3] > 100 µM | [4] > 100 µM | [5] > 100 µM | [6] > 100 µM | [7] > 100 µM | [8] 66.8 µM | [9] > 100 µM | [10] > 100 µM | [11] > 100 µM | [12] > 100 µM | [13] > 100 µM | [14] 50.1 µM | [15] > 100 µM | [16] > 100 µM | [17] > 100 µM | [18] > 100 µM

COc1ccc2c(c1)CC[C@@H]1[C@@H]2CC[C@]2(C)C(=O)/C(=C/c3cc(OC)c(OC)c(OC)c3)C[C@@H]12
inactive: [1] 15.4 µM | [2] 42.8 µM | [5] 59 µM | [6] 42.4 µM | [8] 61.2 µM | [9] 25 µM | [10] 21.7 µM | [11] > 100 µM | [14] 71.3 µM | [19] > 100 µM | [15] 26.3 µM | [16] 19.2 µM | [17] 31.8 µM

O=C1CSC(c2ccc(Cl)cc2)N1c1ccc(Oc2ccc(Cl)cc2)c(Cl)c1 (configuration not stated)
inactive: [1] 17.4 µM | [2] 17.2 µM | [3] 17.4 µM | [4] 17.3 µM | [6] 13.1 µM | [7] 18.6 µM | [8] 13.7 µM | [9] 16.9 µM | [10] 17.4 µM | [11] 18.3 µM | [12] 20 µM | [13] 7.13 µM | [14] 17.1 µM | [19] 11 µM | [15] 15 µM | [16] 16.8 µM | [17] 18.5 µM | [18] 15.2 µM

N#Cc1c2ccc([N+](=O)[O-])cc2c(=O)n2c1sc1ccccc12
inactive: [1] 18.4 µM | [2] 8.05 µM | [3] 17 µM | [4] 11.1 µM | [5] 13.5 µM | [6] 35.5 µM | [7] 33.7 µM | [9] 15.2 µM | [10] 32.4 µM | [11] 18.9 µM | [12] 24.3 µM | [14] 22 µM | [19] 19.3 µM | [15] 19.9 µM | [16] 24.2 µM | [17] 27.5 µM | [18] 25.2 µM

CCOC(=O)C1(C/C=C\CBr)CCCCCCC1=O (configuration not stated)
inactive: [1] > 100 µM | [3] > 100 µM | [5] > 100 µM | [6] > 100 µM | [7] > 100 µM | [8] > 100 µM | [9] > 100 µM | [10] > 100 µM | [11] > 100 µM | [12] > 100 µM | [13] > 100 µM | [14] > 100 µM | [19] > 100 µM | [15] > 100 µM | [16] > 100 µM | [18] > 100 µM

COc1ccc(C2OC[C@H]3O[C@@H](OCc4ccccc4)[C@H](O)[C@@H](O)[C@@H]3O2)cc1 (some centres not stated)
inactive: [1] > 100 µM | [2] > 100 µM | [3] 23.2 µM | [4] > 100 µM | [5] > 100 µM | [6] > 100 µM | [7] > 100 µM | [8] 68.5 µM | [9] > 100 µM | [10] > 100 µM | [11] > 100 µM | [12] > 100 µM | [14] 58.2 µM | [15] > 100 µM | [17] > 100 µM | [18] > 100 µM

C=CCn1c(-c2ccc(Cl)cc2)cs/c1=N\c1ccccc1OC
inactive: [1] 6.5 µM | [2] > 100 µM | [3] > 64.7 µM | [4] 3.44 µM | [5] > 100 µM | [6] > 100 µM | [9] 7.67 µM | [10] > 100 µM | [11] 60 µM | [12] > 100 µM | [14] 2.31 µM | [19] 14.9 µM | [15] > 52.5 µM | [16] > 100 µM | [17] 36 µM | [18] 41.1 µM

CCOC(=O)c1nc2cc(C(F)(F)F)ccc2nc1Oc1ccc(OC)cc1
inactive: [1] > 100 µM | [2] > 100 µM | [3] > 100 µM | [4] > 100 µM | [6] > 100 µM | [8] > 100 µM | [10] > 100 µM | [11] > 100 µM | [12] > 100 µM | [13] 72.4 µM | [14] > 100 µM | [19] > 100 µM | [15] > 100 µM | [16] > 100 µM | [17] 70.8 µM | [18] > 100 µM

CO/C(=N\N=C(/C)C(F)(F)F)c1ccncc1
inactive: [1] > 100 µM | [3] > 100 µM | [4] > 100 µM | [5] 15.5 µM | [6] > 100 µM | [7] > 100 µM | [9] > 100 µM | [12] > 100 µM | [13] > 100 µM | [14] > 100 µM | [19] > 100 µM | [15] > 100 µM | [17] > 100 µM

CSc1nc(C)c2c(n1)SCC2
inactive: [1] > 10 µM | [3] > 10 µM | [4] > 10 µM | [5] > 10 µM | [6] > 10 µM | [7] > 10 µM | [8] > 10 µM | [9] > 10 µM | [10] > 10 µM | [11] > 10 µM | [12] > 10 µM | [14] > 10 µM | [19] > 10 µM | [15] > 10 µM | [16] > 10 µM | [17] > 10 µM | [18] > 10 µM

Cc1ccc(OCC2OC(n3cnc4nc(N)nc(Cl)c43)CC2Oc2ccc(C)cc2)cc1 (configuration not stated)
inactive: [1] 15.9 µM | [2] 15.8 µM | [3] 18.1 µM | [5] 28.2 µM | [6] 18 µM | [7] 23.7 µM | [8] 24.5 µM | [9] 15.6 µM | [10] 15.2 µM | [11] 32.5 µM | [12] 15.8 µM | [13] 15.7 µM | [14] 19.7 µM | [15] 22.5 µM | [16] 22.1 µM | [17] 21.4 µM | [18] 15.7 µM

Cc1cc(C)c2c(O)cc(-c3ccc(F)cc3)nc2n1
inactive: [1] 47.6 µM | [2] 31.3 µM | [3] 35.6 µM | [4] 32.1 µM | [5] 27.4 µM | [6] 66.1 µM | [7] 39.2 µM | [8] 48.5 µM | [9] 38.6 µM | [10] 39.7 µM | [11] 34.4 µM | [12] 50.7 µM | [13] 30.3 µM | [15] 65.8 µM | [18] 45.6 µM
